Data reported in patent US20110052688A1, “SOLID DISPERSION COMPOSITION” (priority 2006, published 2011).

Assay: Solubility of fluvastatin sodium in solvents
Assay type: physicochemical
Conditions: in water, alcohols and acetone
Text: In one aspect, the solvent-based process uses a solvent, such as water, non-organic solvents, and organic solvents, to dissolve and intimately disperse or dissolve the drug and the one or more pharmaceutical acceptable polymers. The solvent is later removed by evaporation or other ways while the drug/polymer solid dispersion is collected into a solid dosage form. The use of organic solvents may generate hazardous and toxic wastes to the environment. If possible, water is used for water soluble drugs to prepare a dispersion. Other suitable solvents may be, for example, alcohols and acetone for the use of water-insoluble polymers.

- Solubility: soluble
SMILES: CC(C)n1c(/C=C/C(O)CC(O)CC(=O)O)c(-c2ccc(F)cc2)c2ccccc21 (stereo not drawn) [fluvastatin sodium, [R*,S*-(E)]=(±)-7-[3-(4-fluorophenyl)-1-(1-methylethyl)-1Hindol-2-yl]-3,5-dihydroxy-6-heptenoic acid]
